The source of these data is patent US11814688B2, “Markers for determining tumor hypoxia” (VIB VZW, priority 2015, dated 2023).

The test system of one data set is MCF7 cells. Briefly: LC/MS analysis of global 5hmC levels in MCF7 cells. The data set is classed as cell-based, human. To be noted: 24 hours.
Another data set has as its system HIFs. Briefly: HIF stabilization and hypoxia response program (Western blot, RT-qPCR) in MCF7 cells. Format: cell-based, human. To be noted: IOX2 50 μM. As for the experimental part:
Cell culture: Cells were cultured as described in the Supplemental Experimental Procedures. […] Where indicated, IOX2 (50 μM) or dimethyl α-ketoglutarate (2 mM) were added to fresh culture medium, using an equal volume of carrier (DMSO) as control for IOX2. Cells were plated at a density tailored to reach 80-95% confluence at the end of the treatment. Fresh medium was added to the cells just before the hypoxia exposure. For glutamine-free culture experiments, dialysed FBS was added to glutamine-free DMEM, and supplemented with glutamine (4 mM) for control. Extraction of DNA, RNA, proteins or metabolites was done 24 hours after the start of treatment, unless indicated otherwise. […]
RT-qPCR: For RNA extractions, cell culture medium was removed, TRIzol (Life Technologies) added and processed according to guidelines. […] Thermal cycling and fluorescence detection were done on a LightCycler 480 Real-Time PCR System (Roche), and differential expression calculated using the ΔΔCt method (Schmittgen and Livak, 2008). […]
TET mRNA concentrations and hypoxia marker gene induction: mRNA concentration analysis and statistics: Ct values were determined for each sample and gene of interest in technical duplicates, and normalized according to the corresponding amplification efficiency. […] Concentrations were expressed as averages of at least 5 independent biological replicates. […]

In the next data set the test system is PHDs. Particulars: cited from earlier work.
Data set [1] addresses recombinant purified Tet1 enzyme (Mus musculus, UniProt Q3URK3). Briefly: DNA hydroxymethylation assay using purified TET enzyme at different O2 concentrations. To be noted: conversion of 5mC to 5hmC on genomic DNA, 3 min reaction.
Data set [2] relates to breast tumors of MMTV-PyMT mice. Briefly: sFlk1 overexpression by hydrodynamic plasmid injection in MMTV-PyMT mice. The data set is classed as in vivo, mouse. As for the experimental part: Murine cancer models: Animal experiments received local ethical approval (P098/2014). Animals were intercrossed and maintained as described in Supplemental Experimental Procedures. Mammary tumors were harvested at 16 weeks from Tg(MMTV-PyMT) and Tg(MMTV-PyMT); Phd2−/+ mice. For Flk1-overexpression studies, tumors allowed to develop for 11 weeks. Subsequently, 2.5 μg of plasmid (sFlk1-overexpressing or empty p156RRL2 vector) per gram of mouse body weight was introduced in the blood stream using hydrodynamic injections (Liu et al., 1999). sFlk1 overexpression was monitored at 4 days after injection and at sacrifice ([…]), by eye bleeds followed by an enzyme-linked immunosorbent assay for sFlk1 (R&D Systems, Abingdon, UK) in blood plasma. At 12 weeks of age, mice were sacrificed and mammary tumors harvested blinded for treatment. For the Phd2^+/− experiments, male Tg(MMTV-PyMT) FVB mice were intercrossed with female Phd2^−/+ mice, yielding litters of which half have either a Tg(MMTV-PyMT) genotype or a Tg(MMTV-PyMT); Phd2^−/+ genotype. For the Phd2^wt/fl experiments, male Tg(MMTV-PyMT) FVB mice were intercrossed with female Tie2-cre; Phd2^wt/fl mice as described (Kuchnio et al 2015), yielding litters of which half have either a Tie2-cre; Tg(MMTV-PyMT); Phd2^wt/wt genotype or a Tie2-cre; Tg(MMTV-PyMT); Phd2^−/+ genotype. At 16 weeks of age, female mice were sacrificed and mammary tumors harvested.
Targeted deep BS-seq: As no murine capture kit was available for targeted BSseq, a specific ampliconBS was developed for a set of 15 tumor suppressor gene promoters and 5 oncogene promoters. More specifically, DNA was bisulfite-converted using the Imprint DNA modification kit and amplified using the MegaMix Gold 2× mastermix and validated primer pairs. Per sample, PCR products were mixed to equimolar concentrations, converted into sequencing libraries using the NEBNext DNA library prep master mix set and sequenced to a depth of ˜500×. Mapping and quantification were done as described for SeqCapEpi. The average and variance of methylation level M values in normal mammary glands were used as baseline, and amplicons displaying over 3 standard deviations more methylation (FDR-adjusted P<0.05) than this baseline were called as hypermethylated. At least 9 different tumors, each from different animals, were profiled per genotype or treatment, and differences in HM frequencies between sets of tumors were assessed using Mann-Whitney's U-test.
Immunofluorescence staining: To mark hypoxic areas, mice were injected with pimonidazole (60 mg/kg, Hypoxyprobe, Massachusetts, USA) i.p. 1 hour before sacrifice. Tumors were harvested, fixed in formaldehyde and embedded in paraffin using standard procedures. Slides were deparafinated and rehydrated 2 xylene baths (5 minutes), followed by 5 times 3 minutes in EtOH baths at decreasing concentrations (100%, 96%, 70%, 50% and water) and a 3 minute Tris-buffered saline (TBS; 50 mM Tris, 150 mM NaCl, pH 7.6) bath. The following antibodies were used for immunofluorescence staining: primary antibodies were FITC-conjugated mouse anti-pimonidazole (HP2-100, Hydroxyprobe), rabbit anti-5hmC (39791, Active Motif), rat anti-polyoma middle T (AB15085, Abcam), rat anti-CD31 (557355, BD Biosciences), rat anti-CD45 (553076, BD Biosciences), rabbit anti-Ki67 (AB15580, Abcam) and mouse anti-pan cytokeratin (C2562, Sigma). […]

Bounds are passed on as bounds.

recombinant purified Tet1 enzyme, sequence (Q3URK3 1367-2039 limits assumed): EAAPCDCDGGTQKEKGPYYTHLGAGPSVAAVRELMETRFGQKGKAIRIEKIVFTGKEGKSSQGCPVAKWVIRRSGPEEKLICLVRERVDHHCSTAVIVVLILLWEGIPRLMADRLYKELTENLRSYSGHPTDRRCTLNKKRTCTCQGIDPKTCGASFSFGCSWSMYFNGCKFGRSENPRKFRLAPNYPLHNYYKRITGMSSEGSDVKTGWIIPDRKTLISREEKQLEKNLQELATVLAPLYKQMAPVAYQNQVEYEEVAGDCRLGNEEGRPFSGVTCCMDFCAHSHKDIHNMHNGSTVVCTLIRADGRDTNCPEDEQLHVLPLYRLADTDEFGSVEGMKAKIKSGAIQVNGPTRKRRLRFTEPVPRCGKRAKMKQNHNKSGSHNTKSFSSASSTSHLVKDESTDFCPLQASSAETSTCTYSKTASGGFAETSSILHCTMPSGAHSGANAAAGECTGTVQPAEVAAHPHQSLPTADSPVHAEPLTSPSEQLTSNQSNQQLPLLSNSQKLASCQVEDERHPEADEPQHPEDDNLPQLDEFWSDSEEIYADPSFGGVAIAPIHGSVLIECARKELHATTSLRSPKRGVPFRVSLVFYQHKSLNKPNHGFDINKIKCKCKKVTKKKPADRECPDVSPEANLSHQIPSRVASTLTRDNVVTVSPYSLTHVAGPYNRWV

As for `O=C(O)CNC(=O)c1c(O)c2ccccc2n(Cc2ccccc2)c1=O` [IOX2], the “changes in global 5hmC levels” value with MCF7 cells (IOX2 50 μM, carrier DMSO as control) was “no changes”. Also, the “HIF stabilization and activation of the hypoxia response program” value in the data set with HIFs was “sufficient to stabilize HIFs and activate the hypoxia response program”. In addition, the “specificity for PHDs over other αKG-dependent dioxygenases” value in the data set with PHDs is given as “high specificity”.
Turning to `O=O` [oxygen], in data set [1], the “Km of Tet1 for oxygen” value was ~0.3 % O2.
Turning to `COC(=O)CCC(=O)C(=O)OC` [αKG, dimethyl α-ketoglutarate], the “changes in global 5hmC levels” value in the data set on MCF7 cells (dimethyl α-ketoglutarate 2 mM added to medium) is given as “Neither of these conditions however altered 5hmC levels”.

B1: sFlk1: soluble Flk1, VEGF inhibitor, overexpressed from a hydrodynamically injected plasmid (protein, UniProt P35918 20-762, looked up)
extracellular domain: ASVGLPGDFLHPPKLSTQKDILTILANTTLQITCRGQRDLDWLWPNAQRDSEERVLVTECGGGDSIFCKTLTIPRVVGNDTGAYKCSYRDVDIASTVYVYVRDYRSPFIASVSDQHGIVYITENKNKTVVIPCRGSISNLNVSLCARYPEKRFVPDGNRISWDSEIGFTLPSYMISYAGMVFCEAKINDETYQSIMYIVVVVGYRIYDVILSPPHEIELSAGEKLVLNCTARTELNVGLDFTWHSPPSKSHHKKIVNRDVKPFPGTVAKMFLSTLTIESVTKSDQGEYTCVASSGRMIKRNRTFVRVHTKPFIAFGSGMKSLVEATVGSQVRIPVKYLSYPAPDIKWYRNGRPIESNYTMIVGDELTIMEVTERDAGNYTVILTNPISMEKQSHMVSLVVNVPPQIGEKALISPMDSYQYGTMQTLTCTVYANPPLHHIQWYWQLEEACSYRPGQTSPYACKEWRHVEDFQGGNKIEVTKNQYALIEGKNKTVSTLVIQAANVSALYKCEAINKAGRGERVISFHVIRGPEITVQPAAQPTEQESVSLLCTADRNTFENLTWYKLGSQATSVHMGESLTPVCKNLDALWKLNGTMFSNSTNDILIVAFQNASLQDQGDYVCSAQDKKTKKRHCLVKQLIILERMAPMITGNLENQTTTIGETIEVTCPASGNPTPHITWFKDNETLVEDSGIVLRDGNRNLTIRRVRKEDGGLYTCQACNVLGCARAETLFIIEGAQEKTNLE
modifications: extracellular domain
As for B1, the “tumor hypoxia (hypoxic area)” value in data set [2] (after sFlk1 treatment, 20% in control) came to 47%. Besides, in data set [2] (deep BS-sequencing, panel of 15 TSG promoters), the “TSGs hypermethylated relative to control in at least one out of 24 hypoxic tumors” value is 10 out of 15. Further, the “hypermethylation of oncogene promoters” value in data set [2] (deep BS-sequencing, sFlk-treated tumors) is on record as “failed to display the same increase”. Besides, in data set [2] (during 3 weeks after hydrodynamic injection of sFlk1-expressing plasmid, versus empty plasmid), the “increase in plasma sFlk1 concentrations” value is on record as > 11 fold. Moreover, the “reduction in vessel density” value in data set [2] (tumor vasculature, sFlk1-treated mice) was 42±10%.
